Values quoted from earlier work as cited in patent publication US10149828B2, “Oxybutynin transdermal therapeutic system combination” (priority 2015, dated 2018).

How the values were obtained:
[1] = open-label, titrated to 6 mg twice daily, 26 weeks
[2] = compared to placebo over six months; pivotal clinical trials
[3] = administered orally to mice
[4] = [14C] oxybutynin, transdermal, rats

Row | Structure (SMILES) | cognitive functions in PD patients with dementia [1] | motor function in PD patients with dementia [1] | improvement on the 30-point Mini-Mental Status Examination (MMSE) [2] | improvement on the 70-point cognitive subscale of the Alzheimer's Disease Assessment Scale (ADAS-Cog) [2] [point] | crossing of the Blood-Brain-Barrier [3] | radiolabel in the brain [4]
1 | CCN(C)C(=O)Oc1cccc([C@H](C)N(C)C)c1 [rivastigmine, (S)-N-Ethyl-N-methyl-3-[1-(dimethylamino)ethyl]-phenyl carbamate] | may improve | no worsening | 1-1.5 point | ~2.8 |  | 
2 | CCN(CC)CC#CCOC(=O)C(O)(c1ccccc1)C1CCCCC1 (stereo not drawn) [oxybutynin, 4-diethylaminobut-2-ynyl 2-cyclohexyl-2-hydroxy-2-phenylethanoate] |  |  |  |  | has been shown to cross the Blood-Brain-Barrier | presence of radiolabel in the brain
